Experimental data from patent publication US12251368B2, “Continuous administration of pharmaceutical composition for treatment of neurodegenerative disorders” (InTrance Medical Systems Inc., priority 2018, dated 2025).
“And” between values parts separate entries of the source, which are not always exact repeats. Equal values may be shown once. Values belong to the compound of their own block, whether it stands above or below them.

How the values were obtained:
[1] = cited from earlier work
[2] = in vivo; cited from earlier work
[3] = target: T1, peripheral dopamine decarboxylase (Homo sapiens, UniProt P20711); conditions: KINSON prescribing information; cited from earlier work
T1 construct: host or cells: patients (peripheral tissues)
T1 sequence (P20711 1-480): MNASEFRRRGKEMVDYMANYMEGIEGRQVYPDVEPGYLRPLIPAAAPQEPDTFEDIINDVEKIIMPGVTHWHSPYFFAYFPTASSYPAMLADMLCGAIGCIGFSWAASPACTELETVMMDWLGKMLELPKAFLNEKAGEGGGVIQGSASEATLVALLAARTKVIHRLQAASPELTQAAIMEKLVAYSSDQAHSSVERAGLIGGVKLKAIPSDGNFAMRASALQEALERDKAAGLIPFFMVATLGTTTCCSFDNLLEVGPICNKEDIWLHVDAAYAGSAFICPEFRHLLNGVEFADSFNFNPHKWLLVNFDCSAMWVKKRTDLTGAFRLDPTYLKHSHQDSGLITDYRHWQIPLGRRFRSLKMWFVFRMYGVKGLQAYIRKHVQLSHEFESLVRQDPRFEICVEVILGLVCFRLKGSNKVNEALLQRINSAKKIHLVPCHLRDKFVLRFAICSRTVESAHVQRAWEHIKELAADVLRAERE

[4] = Storage stability / shelf life of intra-intestinal gel; format: physicochemical
[5] = cited from earlier work; remark: listed apart in the source
[6] = intravenous administration (3 mg/kg); cited from earlier work
[7] = in the presence of COMT inhibitors; literature reports; cited from earlier work

effect of storage in a light reducing container on degradation ([4]; light reducing container, such as an aluminum bag): some positive effect
SMILES: C[C@@](Cc1ccc(O)c(O)c1)(NN)C(=O)O [Carbidopa, (−)-L-α-hydrazino-α-methyl-β-(3,4-dihydroxybenzene) propanoic acid monohydrate]
solubility in water [1]: slightly soluble in water
crossing of the blood-brain barrier [2]: does not cross the blood-brain barrier
dose at which peripheral dopamine decarboxylase is saturated [3]: 70-100 mg per day

stability in intra-intestinal gel ([4]; prior art LCIG and gel compositions of the invention): relatively stable
SMILES: N[C@@H](Cc1ccc(O)c(O)c1)C(=O)O [Levodopa, (−)-L-α-amino-β-(3,4-dihydroxybenzene) propanoic acid]
solubility in water [1]: slightly soluble in water
crossing of the blood-brain barrier [2]: does cross the blood-brain barrier
bioavailability ([5]; administered via DUODOPA gel, same as in a tablet): 81-98%
fraction metabolized to dopamine before levodopa reaches the brain ([5]; intake of levodopa alone): more than 90%

SMILES: Cc1ccc(C(=O)c2cc(O)c(O)c([N+](=O)[O-])c2)cc1 [Tolcapone, (3,4-Dihydroxy-5-nitrophenyl)(4-methylphenyl)methanone]
elimination half-life [6]: 2.9 h
Levodopa bioavailablity increase [7]: 33% and 25%

SMILES: NCCc1ccc(O)c(O)c1 [dopamine, 3,4-dihydroxyphenethylamine]
crossing of the blood-brain barrier [2]: does not cross the blood-brain barrier
